According to patent publication US7323474B2, “Pyridine derivatives inhibiting angiogenesis and/or VEGF receptor tyrosine kinase” (Novartis AG, priority 2000, dated 2008):

Legend:
[1] = target: T1, human VEGF receptor (KDR) (Homo sapiens, UniProt P35968); assay: Test for activity against VEGF-induced KDR phosphorylation (transfected CHO cells, sandwich ELISA); format: cell-based; settings: 2 h compound, then VEGF 20 ng/ml for 5 min, % inhibition of VEGF-induced KDR phosphorylation, read-out: ED50 (the source's name)
T1 construct: expressed in transfected cells; host or cells: CHO cells (stably transfected)
Method: Using a further cellular in vitro experiment, the inhibition of the VEGF-induced KDR autophosphorylation can be confirmed: Transfected CHO cells, which permanently express human VEGF receptor (KDR), are seeded in culture medium (with 10% fetal calf serum=FCS) in 6-well cell culture plates and incubated at 37° C., 5% CO2 until they are approximately 80% confluent. The compounds to be tested are then diluted in culture medium (without FCS, with 0.1% bovine serum albumin=BSA) and added to the cells. (Controls receive medium without test compounds). After incubation for two hours at 37° C., recombinant VEGF is added; the final VEGF concentration is 20 ng/ml. After incubating for a further five minutes at 37° C., the cells are washed twice with ice-cold PBS (phosphate-buffered physiological saline) and immediately lysed in 100 μl lysis buffer per well. The lysates are then centrifuged to remove the cell nuclei, and the protein concentrations of the supematants are determined by a commercial protein assay (BIORAD). The lysates can then be either further used immediately or stored at −20° C. if required. To determine the KDR phosphorylation, a “sandwich ELISA” is carried out. A monoclonal antibody to KDR (for example Mab 1495.12.14; prepared by H. Towbin) is immobilised on black ELISA plates (OptiPlate™ HTRF-96 by Packard). Subsequently, the plates are washed and any remaining free protein binding sites are neutralised with 1% BSA in PBS. The cell lysates (20 μg protein per well) are then incubated over night at 4° C. together with an anti-phosphotyrosin antibody, which is coupled with alkaline phosphatase (PY20:AP from Transduction Laboratories). […] Luminescence is measured in a Packard Top Count Microplate Scintillation Counter (Top Count). The difference between the signal from the positive control (stimulated with VEGF) and that from the negative control (not stimulated with VEGF) corresponds to the VEGF-induced KDR phosphorylation (=100%). The activity of the tested substances is calculated as % inhibition of the VEGF-induced KDR phosphorylation, whereby the concentration of a substance which effects semi-maximum inhibition is called ED50 (effective dose for 50% inhibition). […] Test for activity against VEGF-Induced KDR phosphorylation The cellular in vitro test is carried out using VEGF and KDR-transfected cells, as described above. The ED50 values determined are given below, insofar as they have been accurately recorded: […]

[2] = target: T2, KDR VEGF-receptor tyrosine kinase (Homo sapiens, UniProt P35968); assay: Test for activity against KDR VEGF-receptor tyrosine kinase; format: biochemical; settings: KDR kinase domain; poly(Glu,Tyr) 4:1 8 μg/ml, 8 μM [33P]-ATP, 10 minutes at room temperature
T2 construct: instead of the Flt-1 kinase domain, the KDR kinase domain
Method: Test for activity against VEGF-receptor tyrosine kinase: the test is conducted using Flt-1 VEGF-receptor tyrosine kinase. The detailed procedure is as follows: 30 μl kinase solution (kinase domain of Flt-1, Shibuya et al., Oncogene 5, 519-24 [1990], according to the specific activity, in order to achieve an activity of 4000-6000 counts per minute [cpm] in the sample without inhibitor) in 20 mM Tris.HCl pH 7.5, 3 mM manganese dichloride (MnCl2), 3 mM magnesium chloride (MgCl2) and 3 μg/ml poly(Glu,Tyr) 4:1 (Sigma, Buchs, Switzerland), 8 μM [^33P]-ATP (0.2 μCi/batch), 1% dimethyl sulfoxide, and 0 to 50 μM of the compound to be tested are Incubated together for 10 minutes at room temperature. The reaction is then ended by the addition of 10 μl 0.25 M ethylenediaminetetraacetate (EDTA) pH 7. Using a multichannel dispenser (LAB SYSTEMS, USA), an aliquot of 20 μl is applied to a PVDF (=polyvinyl difluoride) Immobilon P membrane (Millipore, USA), which is incorporated into a Millipore microtitre filter manifold, and connected to a vacuum. Following complete elimination of the liquid, the membrane is washed 4 times successively in a bath containing 0.5% phosphoric acid (H3PO4), incubated for 10 minutes each time while shaking, then mounted in a Hewlett Packard TopCount Manifold and the radioactivity measured after the addition of 10 μl Microscint® (β-scintillation counter liquid; Packard USA). IC50-values are determined by linear regression analysis of the percentages for the inhibition of each compound in three concentrations (as a rule 0.01, 0.1, and 1 μM). Inhibition values (IC50 50% inhibition of activity compared with the control without an inhibitor of formula I) in the range of 5 nM to 1 μM, especially In the range of 5 nM to 500 nM are found.
Analogously to the above test, the efficacy of the compounds according to the invention as inhibitors of VEGF activity can be tested using the VEGF receptor tyrokinase KDR. In this test, instead of the Flt-1 kinase domain, the KDR kinase domain (Parast et al., Biochemistry 37 (47), 16788-801 (1998)) is used. The only difference in carrying out this test from the above test lies in the concentration of poly(Glu,Tyr) 4:1 (8 μg/ml), MnCl2 (1 mM) and MgCl2 (10 mM).
Test for activity against KDR VEGF-receptor tyrosine kinase The test is conducted using KDR VEGF-receptor tyrosine kinase, as described hereinabove. The IC50 values determined are given below, insofar as they have been accurately recorded: […]

T1 sequence (P35968 20-1356): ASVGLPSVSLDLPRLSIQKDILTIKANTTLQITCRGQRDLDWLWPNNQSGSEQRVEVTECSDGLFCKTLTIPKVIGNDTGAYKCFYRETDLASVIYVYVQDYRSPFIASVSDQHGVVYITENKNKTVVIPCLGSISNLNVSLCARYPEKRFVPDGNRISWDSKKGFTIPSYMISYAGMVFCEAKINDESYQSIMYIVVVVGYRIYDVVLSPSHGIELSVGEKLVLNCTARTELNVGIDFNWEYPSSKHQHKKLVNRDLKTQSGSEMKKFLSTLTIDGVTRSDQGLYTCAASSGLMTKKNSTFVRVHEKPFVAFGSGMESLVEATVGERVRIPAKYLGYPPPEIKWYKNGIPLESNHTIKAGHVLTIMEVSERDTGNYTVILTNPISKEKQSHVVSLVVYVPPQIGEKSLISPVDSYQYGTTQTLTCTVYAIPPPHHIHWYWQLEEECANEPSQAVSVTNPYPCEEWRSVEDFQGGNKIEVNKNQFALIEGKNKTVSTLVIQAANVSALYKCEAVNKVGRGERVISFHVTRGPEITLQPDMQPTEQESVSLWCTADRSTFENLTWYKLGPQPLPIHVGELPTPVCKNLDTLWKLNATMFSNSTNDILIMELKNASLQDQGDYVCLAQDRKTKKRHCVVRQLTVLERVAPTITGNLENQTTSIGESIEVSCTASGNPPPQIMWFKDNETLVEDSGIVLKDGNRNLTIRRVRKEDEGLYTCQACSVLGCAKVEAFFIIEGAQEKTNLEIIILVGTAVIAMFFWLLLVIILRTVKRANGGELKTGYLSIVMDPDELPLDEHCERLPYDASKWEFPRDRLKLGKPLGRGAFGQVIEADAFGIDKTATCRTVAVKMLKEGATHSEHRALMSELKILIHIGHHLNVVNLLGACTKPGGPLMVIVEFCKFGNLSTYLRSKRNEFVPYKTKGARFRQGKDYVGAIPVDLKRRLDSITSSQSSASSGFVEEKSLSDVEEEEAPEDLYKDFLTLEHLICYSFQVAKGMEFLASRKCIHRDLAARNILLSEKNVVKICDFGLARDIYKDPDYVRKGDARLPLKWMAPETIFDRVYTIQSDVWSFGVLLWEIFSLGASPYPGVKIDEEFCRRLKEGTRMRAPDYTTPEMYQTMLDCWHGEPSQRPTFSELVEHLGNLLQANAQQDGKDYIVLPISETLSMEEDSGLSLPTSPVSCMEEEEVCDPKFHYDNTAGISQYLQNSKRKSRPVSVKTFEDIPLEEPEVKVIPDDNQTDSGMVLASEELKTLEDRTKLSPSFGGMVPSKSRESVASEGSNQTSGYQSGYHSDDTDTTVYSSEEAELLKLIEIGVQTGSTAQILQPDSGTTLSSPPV
T2 sequence (P35968 834-1162 limits assumed): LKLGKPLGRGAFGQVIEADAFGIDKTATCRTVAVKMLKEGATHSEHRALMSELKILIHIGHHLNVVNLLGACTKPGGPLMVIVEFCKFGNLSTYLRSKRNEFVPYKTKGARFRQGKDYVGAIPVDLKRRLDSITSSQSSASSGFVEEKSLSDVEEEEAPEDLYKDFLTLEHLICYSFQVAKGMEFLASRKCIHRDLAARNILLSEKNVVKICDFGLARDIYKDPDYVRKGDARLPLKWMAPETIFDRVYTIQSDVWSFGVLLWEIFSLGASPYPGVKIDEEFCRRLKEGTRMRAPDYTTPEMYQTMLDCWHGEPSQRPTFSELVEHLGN

| Compound | IC50 [1] [nM] | IC50 [2] [nM] | melting point [°C] |
| --- | --- | --- | --- |
| FC(F)(F)c1ccc(Nc2ncc(CCc3cccnc3)c3ccccc23)cc1C(F)(F)F [Example 11] | – | 41 | 124 to 125 |
| Clc1ccc(Nc2ncc(CCc3cccnc3)c3ccccc23)cc1 [Example 1, 1-(4chloroanilino)-4-[2-(pyridin-3-yl)-ethyl]-isoquinoline] | – | 105 | 157 to 158 |
| CCc1ccc(Nc2ncc(CCc3cccnc3)c3ccccc23)cc1Br [Example 9, 1-(3-bromo-4ethylanilino)-4-[2-(pyridin-3-yl)-ethyl]-isoquinoline] | 91 | 4 | 119 |
| Cc1cc(Nc2ncc(CCc3cccnc3)c3ccccc23)ccc1C(C)C [Example 8] | 11 | 27 | 133 to 134 |
| CC(C)(C)c1ccc(Nc2ncc(CCc3cccnc3)c3ccccc23)cc1 [Example 5] | 10 | 25 | 81 |
| CC(C)(C)c1cccc(Nc2ncc(CCc3cccnc3)c3ccccc23)c1 [Example 10] | – | 33 | 133 to 134 |
| CC(C)(C)[C@H]1CC[C@H](Nc2ncc(CCc3cccnc3)c3ccccc23)CC1 [16 (E isomer), trans 1-(4-tert-butyl-cyclohexylamino)-4-[2-(pyridin-3-yl)-ethyl]-isoquinoline] | – | 196 | 124 to 125 |
| FC(F)(F)c1cc(Nc2ncc(CCc3cccnc3)c3ccccc23)cc(C(F)(F)F)c1 [Example 12] | – | 192 | 174 |
| Nc1cc(Cl)cc(C(F)(F)F)c1 [Example 7, 5-amino-3-chloro-benzotrifluoride] | – | 185 | – |
| Cc1ccc(Nc2ncc(/C=C\c3cccnc3)c3ccccc23)cc1Br [Example 2, (Z) 1-(3-bromo-4-methylanilino)-4-[2-(pyridin-3-yl)-vinyl]-isoquinoline] | – | 49 | – |
| CC(C)[C@H]1CC[C@H](Nc2ncc(Cc3ccc(O)nc3)c3ccccc23)CC1 [29 (E isomer), trans 1-(4-isopropyl-cyclohexylamino)-4-[(6-hydroxy-pyridin-3-yl)-methyl]-isoquinoline] | – | 87 | – |
| Cc1ccc(Nc2ncc(/C=C/c3cccnc3)c3ccccc23)cc1Br [Example 3, (E) 1-(3-bromo-4-methylanilino)-4-[2-(pyridin-3-yl)-vinyl]-isoquinoline] | – | 123 | 196 to 197 |
| FC(F)(F)c1cc(Nc2ncc(CCc3cccnc3)c3ccccc23)ccc1Cl [Example 13] | – | 53 | 159 |

Continued, values first:

| IC50 [1] [nM] | IC50 [2] [nM] | melting point [°C] | Compound |
| --- | --- | --- | --- |
| 28 | – | – | COc1ccc(Cc2cnc(Nc3ccc(C(C)(C)C)cc3)c3ccccc23)cn1 [Example 33e, 1-[4-(tert-butyl)-anilino]-4-[(6-methoxy-pyridin-3yl)-methyl]-isoquinoline] |
| – | 127 | – | Cc1ccc(CCc2cnc(N[C@H]3CC[C@H](C(C)C)CC3)c3ccccc23)cn1 [Example 19, trans 1-(4-isopropyl-cyclohexylamino)-4-[2-(6-methyl-pyridin-3-yl)-ethyl]-isoquinoline] |
| 52 | 81 | – | COc1ccc(Cc2cnc(Nc3ccc(C(C)(C)C)cc3)c3cccnc23)cn1 [Example 40e, 5-[4-(tert-butyl)-anilino]-8-[(6-methoxy-pyridin-3-yl)-methyl]-[1,6]naphthyridine] |
| – | 48 | – | Cc1ccc(CCc2cnc(Nc3ccc(C(C)C)c(C)c3)c3ccccc23)cn1 [Example 20] |
| 22 | – | – | CC(C)(C)c1ccc(Nc2ncc(Cc3ccc(O)nc3)c3ncccc23)cc1 [Example 41e, 5-[4-(tert-butyl)-anilino]-8-[(6-hydroxy-pyridin-3-yl)-methyl]-[1,6]naphthyridine] |
| – | – | 142 to 146 | CCc1ccc(Nc2ncc(Cc3ccc(OC)nc3)c3ncccc23)cc1Br [Example 37a, 5-(3-bromo-4-ethyl-anilino)-8-[(6-methoxy-pyridin-3-yl)-methyl]-[1,6]naphthyridine] |
| – | 92 | – | CCc1ccc(Nc2ncc(Cc3ccc(O)nc3)c3ncccc23)cc1Br [Example 37b, 5-(3-bromo-4-ethyl-anilino)-8-[(6-hydroxy-pyridin-3-yl)-methyl]-[1,6]naphthyridine] |
| – | 15 | 103 to 105 | CCc1ccc(Nc2ncc(CCc3ccc(C)nc3)c3ccccc23)cc1Br [Example 21] |
| – | – | 137 | Cc1nc(Nc2cccc(C(F)(F)F)c2)c2ccccc2c1Cc1ccc(Cl)nc1 [Example 45a, 1-(3-trifluoromethyl-anilino)-4-[(6-chloro-pyridin-3-yl)-methyl]-3-methylisoquinoline] |
| 19 | – | – | CC(C)(C)c1ccc(Nc2ncc(Cc3ccc(O)nc3)c3ccccc23)cc1 [Example 34e, 1-[4-(tert-butyl)-anilino]4-[(6-hydroxy-pyridin-3-yl)-methyl]-isoquinoline] |
| 29 | 137 | – | CCc1ccc(Nc2ncc(Cc3ccc(O)nc3)c3ccccc23)cc1Br [Example 34g, 1-(3-bromo-4-ethylanilino]-4-[(6-hydroxy-pyridin-3-yl)-methyl]-isoquinoline] |
| – | – | 232 to 235 | CC(C)[C@H]1CC[C@H](Nc2ncc(Cc3ccc(O)nc3)c3ncccc23)CC1 [Example 39, trans 5-(4-isopropyl-cyclohexylamino)-8-[(6-hydroxy-pyridin-3-yl)-methyl]-[1,6]naphthyridine] |
